Reference: article PMC4530782 (Bioorganic & medicinal chemistry letters, 2011)

Experiments:
[1] = tested on: MDA-468 (breast) cancer cells; test: Whole cell MTS cytotoxicity assay, MDA-468; format: cell-based; details: Homo sapiens, 72 h, read-out: EC50 MDA-468
[2] = tested on: DU145 (prostate) cancer cells; test: Whole cell MTS cytotoxicity assay, DU145; format: cell-based; details: Homo sapiens, DU-145, 72 h, read-out: EC50 DU145
[3] = tested on: JJN3 (multiple myeloma) cancer cells; test: Whole cell MTS cytotoxicity assay, JJN3; format: cell-based; details: Homo sapiens, JJN-3, 72 h, read-out: EC50 JJN3
[4] = tested on: Stat3 phosphorylation in MDA-468 cells; format: cell-based, human; details: 24 hrs
[5] = tested on: Stat3 phosphorylation in JJN3 cells; format: cell-based, human; details: 24 hrs
Stat5 = details: read-out: Stat5 Ki, fluorescence polarization; earlier work on 7; cited from earlier work
Stat1 = details: read-out: Stat1 Ki, fluorescence polarization; earlier work on 7; cited from earlier work
[6] = tested on: NIH3T3, TE-71 and HPDEC cells; details: cited from earlier work
breast tumor xenografts = details: cited from earlier work
Water solubility = format: physicochemical; details: compared with 7 and 17e

| SMILES | EC50 [1] [µM] | EC50 [2] [µM] | EC50 [3] [µM] | concentration at which Stat3 phosphorylation is inhibited ([4]; Western blot) | concentration at which Stat3 phosphorylation is inhibited ([5]; Western blot) | Ki (Stat5) [µM] | Ki (Stat1) [µM] | effects against 'healthy' cells lacking activated Stat3 [6] | in vivo effect on breast tumor xenografts (breast tumor xenografts) | water solubility (in words) (Water solubility) | levels of Stat3 downstream targets (cMYC, Bcl-xL, Survivin) ([4]; immunoblotting) | levels of Stat3 downstream targets (cMYC, Bcl-xL, Survivin) ([5]; immunoblotting) |
| --- | --- | --- | --- | --- | --- | --- | --- | --- | --- | --- | --- | --- |
| Cc1ccc(S(=O)(=O)N(C)CC(=O)N(Cc2ccc(C3CCCCC3)cc2)c2ccc(C(=O)O)c(O)c2)cc1 [compound 7] | 17 ± 4.4 | 37.2 ± 12.4 | 93.3 ± 15.8 | approximately 100 μM | approximately 100 μM | > 25 | > 25 | negligible effects | suppression of breast tumor xenografts | – | – | – |
| CN(CC(=O)N(Cc1ccc(C2CCCCC2)cc1)c1ccc(C(=O)O)c(O)c1)S(=O)(=O)c1c(F)c(F)c(F)c(F)c1F [17o] | – | – | – | – | – | – | – | – | – | much improved water solubility over both 7 and 17e | effectively reduced levels of Stat3 downstream targets | effectively reduced levels of Stat3 downstream targets |
